In PubChem BioAssay AID624385 (Sanford-Burnham Center for Chemical Genomics, 2012):
Activity calls are given as the source filed them. The rule behind the calls is not given here.

Target: Small ubiquitin-related modifier 2 (Homo sapiens) (UniProt P61956)
Assay: disruption of SUMO2 interaction with SIM peptide – biochemical, fluorescence polarization, uHTS hits, selectivity assay for SUMO1 interaction inhibitor project, dose response (AID 624385)
Settings: SUMO2-SIM peptide binding

Small ubiquitin-related modifier 2 (Homo sapiens), sequence (P61956 whole entry, looked up): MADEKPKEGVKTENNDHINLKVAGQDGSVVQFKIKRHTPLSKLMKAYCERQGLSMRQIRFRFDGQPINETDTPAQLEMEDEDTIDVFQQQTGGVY

Row | IC50 | SMILES
1 | > 66 µM (inactive) | N#CC(C(=O)Nc1cccc(Cl)c1)=C1Nc2ccccc2N1
2 | inactive | C[c-]1[c-](C)[c-](C)[c-](C)[c-]1C.[Fe].c1cc2nccc(N3CCCC3)[c-]2c1 (configuration not stated)
